This passage reports IC50 results from patent US20100080786A1, “Phenyl or Pyridinyl Substituted Indazoles Derivatives” (priority 2008, published 2010).

The target of this assay is T1, Human Glucocorticoid Receptor (GR) (Homo sapiens, UniProt P04150).
T1 construct: The full length GR was diluted to a final concentration of 3.3% (0.495 mg/ml) in assay buffer
T1 sequence (P04150 1-777): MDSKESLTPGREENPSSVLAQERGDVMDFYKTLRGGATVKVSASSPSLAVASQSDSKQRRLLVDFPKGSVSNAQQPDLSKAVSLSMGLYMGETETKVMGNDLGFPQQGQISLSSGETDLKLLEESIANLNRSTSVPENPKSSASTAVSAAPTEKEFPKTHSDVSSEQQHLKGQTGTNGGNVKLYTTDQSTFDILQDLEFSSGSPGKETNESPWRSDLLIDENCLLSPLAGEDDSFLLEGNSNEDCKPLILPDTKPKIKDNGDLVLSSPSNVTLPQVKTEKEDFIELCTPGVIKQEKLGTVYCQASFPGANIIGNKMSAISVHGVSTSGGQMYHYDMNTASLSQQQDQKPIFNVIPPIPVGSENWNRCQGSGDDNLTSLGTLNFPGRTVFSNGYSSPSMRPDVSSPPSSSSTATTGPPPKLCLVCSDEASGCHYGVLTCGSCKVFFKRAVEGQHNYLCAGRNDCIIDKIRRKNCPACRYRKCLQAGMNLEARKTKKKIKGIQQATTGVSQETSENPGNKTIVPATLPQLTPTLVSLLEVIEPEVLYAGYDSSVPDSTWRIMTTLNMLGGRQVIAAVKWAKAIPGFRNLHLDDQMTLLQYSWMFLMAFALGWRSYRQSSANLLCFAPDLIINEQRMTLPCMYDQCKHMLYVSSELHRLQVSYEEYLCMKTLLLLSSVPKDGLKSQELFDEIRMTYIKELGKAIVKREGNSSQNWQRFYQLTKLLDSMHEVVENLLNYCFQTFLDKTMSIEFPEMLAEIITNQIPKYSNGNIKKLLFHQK
Description: Human Glucocorticoid Receptor (GR) radioligand binding assay (3H-dexamethasone competition). As to conditions: full length GR; 7 nM 3H-dexamethasone; 2 h at room temperature. On the procedure: Human Glucocorticoid Receptor (GR) Assay
The radioligand GR binding assay is based on a competition assay using ^3H-labeled Dexamethasone. Dexamethasone is known to bind in the ligand binding domain of GR and compete for binding with endogenous ligands like e.g. cortisol (Necela, 2003). In the GR radioligand binding assay, test compounds were serially diluted in semi-log steps (10 concentrations) with a final concentration of 10 μM. Test compounds (1 μL) and controls (1 μL) in 100% DMSO were added to 96 Greiner V-bottom polypropylene plates. 0% control was 6.7% DMSO (final concentration in assay) and 100% control was 6.7 μM Dexamethasone.
The full length GR was diluted to a final concentration of 3.3% (0.495 mg/ml) in assay buffer (20 mM Tris-HCl, 1 mM EDTA, 10% (w/v) Glycerol, 20 mM Sodium molybdate, pH 7.4). 45 μL of GR was added to each well and the plates were incubated for 15 min at room temperature.
^3H-dexamethasone solution was diluted to a concentration of 70 nM in assay buffer (7 nM final assay concentration) and 5 μL was added to each well. The samples were mixed for 5 min using a plate shaker at 700 rpm, before incubation for 2 h at room temperature.
50 μL ice-cold charcoal solution (pH 7.4:2% Charcoal, 0.2% Dextran T70 in 20 mM Tris-HCl, 1 mM EDTA and 20 mM Sodium molybdate) was added to each well and the samples were mixed on plate shaker for 5 minutes.
The plate was then centrifuged for 1.5 min at 1500 rpm, the samples (80 μL) were is transferred from each well to a filter plate (Millipore, 0.45 μm, MHVBN45) on a vacuum manifold and then collected into new plates (Greiner, 96 well white/transparent, 655095). The filter plate was washed once with 20 μl of water and then 100 μL of scintillation liquid was added to each well and mixed by incubation on plate shaker for 5 min. Radioactivity was measured in a 1450 Microbeta Trilux Reader (Wallac) counting cpm for 2 minutes per well. The data obtained from each replicate experiment were analysed using the software ActivityBase, version 5.4.3 (ID Business Solutions Ltd) and IC50 values were calculated. Ref: Necela, B M, Cidlowski, J A, Trends Pharmacol Sci, 24: 58, 2003

Turning to `C[C@H](NC(=O)C(N)=O)[C@H](Oc1ccc2c(cnn2-c2cccc(C(=O)N3CCC[C@@H]3C(N)=O)c2)c1)c1ccccc1` [Example 2, N-[(1S,2R)-2-{[1-(3-{[(2R)-2-carbamoylpyrrolidin-1-yl]carbonyl}phenyl)-1H-indazol-5-yl]oxy}-1-methyl-2-phenylethyl]ethanediamide], the IC50 amounted to 19.9 nM.
`C[C@H](NC(=O)C(C)(F)F)[C@H](Oc1ccc2c(cnn2-c2cccc(C(=O)NCCO)c2)c1)c1ccccc1` [Example 3, 3-[5-({(1R,2S)-2-[(2,2-difluoropropanoyl)amino]-1-phenylpropyl}oxy)-1H-indazol-1-yl]-N-(2-hydroxyethyl)benzamide]: the IC50 was found to be 1.69 nM.
`C[C@H](NC(=O)C(C)(F)F)[C@H](Oc1ccc2c(cnn2-c2cccc(C(=O)NCC(N)=O)c2)c1)c1ccccc1` [Example 4, N-(2-amino-2-oxoethyl)-3-[5-({(1R,2S)-2-[(2,2-difluoropropanoyl)amino]-1-phenylpropyl}oxy)-1H-indazol-1-yl]benzamide] returned a concentration for half-maximal inhibition (IC50) of 1.61 nM. This IC50 and that of the compound before are within 1.5-fold of each other.
With `C[C@H](NC(=O)c1cccc(-n2ncc3cc(O[C@H](c4ccccc4)[C@H](C)NC(=O)C(C)(F)F)ccc32)c1)C(N)=O` [Example 5, N-[(1S)-2-amino-1-methyl-2-oxoethyl]-3-[5-({(1R,2S)-2-[(2,2-difluoropropanoyl)amino]-1-phenylpropyl}oxy)-1H-indazol-1-yl]benzamide], the IC50 is 1.93 nM.
Turning to `CC(=O)NCCNC(=O)c1cccc(-n2ncc3cc(O[C@H](c4ccccc4)[C@H](C)NC(=O)C(C)(F)F)ccc32)c1` [Example 6, N-[2-(acetylamino)ethyl]-3-[5-({(1R,2S)-2-[(2,2-difluoropropanoyl)amino]-1-phenylpropyl}oxy)-1H-indazol-1-yl]benzamide], the 50% inhibitory concentration (IC50) stood at 5.06 nM. Compared with the last compound, the IC50 is about 2.6-fold higher.
Then `C[C@H](NC(=O)C(C)(F)F)[C@H](Oc1ccc2c(cnn2-c2cccc(C(=O)NCCN3CCNC3=O)c2)c1)c1ccccc1` [Example 7, 3-[5-({(1R,2S)-2-[(2,2-difluoropropanoyl)amino]-1-phenylpropyl}oxy)-1H-indazol-1-yl]-N-[2-(2-oxoimidazolidin-1-yl)ethyl]benzamide], with 16.9 nM; and `C[C@H](NC(=O)C(C)(F)F)[C@H](Oc1ccc2c(cnn2-c2cccc(C(=O)N3CCC[C@@H]3CO)c2)c1)c1ccccc1` [Example 8, 2,2-Difluoro-N-[(1S,2R)-2-{[1-(3-{[(2R)-2-(hydroxymethyl)pyrrolidin-1-yl]carbonyl}phenyl)-1H-indazol-5-yl]oxy}-1-methyl-2-phenylethyl]propanamide], with 6.88 nM; and `C[C@H](NC(=O)C(C)(F)F)[C@H](Oc1ccc2c(cnn2-c2cccc(C(=O)N3CC[C@@H](O)C3)c2)c1)c1ccccc1` [Example 9, 2,2-Difluoro-N-[(1S,2R)-2-{[1-(3-{[(3R)-3-hydroxypyrrolidin-1-yl]carbonyl}phenyl)-1H-indazol-5-yl]oxy}-1-methyl-2-phenylethyl]propanamide], with 5.65 nM.
The compound `C[C@H](NC(=O)C(C)(F)F)[C@H](Oc1ccc2c(cnn2-c2cccc(C(=O)N3CCNC(=O)C3)c2)c1)c1ccccc1` [Example 12, 2,2-Difluoro-N-{(1S,2R)-1-methyl-2-[(1-{3-[(3-oxopiperazin-1-yl)carbonyl]phenyl}-1H-indazol-5-yl)oxy]-2-phenylethyl}propanamide] yielded an IC50 of 2.54 nM. This IC50 lies about 2.2-fold lower than the previous one.
In the case of `C[C@H](NC(=O)C(C)(F)F)[C@H](Oc1ccc2c(cnn2-c2cccc(C(=O)NCCN3CCCC3=O)c2)c1)c1ccccc1` [Example 13, 3-[5-({(1R,2S)-2-[(2,2-difluoropropanoyl)amino]-1-phenylpropyl}oxy)-1H-indazol-1-yl]-N-[2-(2-oxopyrrolidin-1-yl)ethyl]benzamide] it was 38.4 nM; in that of `C[C@H](NC(=O)C(C)(F)F)[C@H](Oc1ccc2c(cnn2-c2cccc(C(=O)NCCN3C(=O)OC(C)(C)C3=O)c2)c1)c1ccccc1` [Example 14, 3-[5-({(1R,2S)-2-[(2,2-difluoropropanoyl)amino]-1-phenylpropyl}oxy)-1H-indazol-1-yl]-N-[2-(5,5-dimethyl-2,4-dioxo-1,3-oxazolidin-3-yl)ethyl]benzamide], 40.2 nM; in that of `C[C@H](NC(=O)C(C)(F)F)[C@H](Oc1ccc2c(cnn2-c2cccc(C(=O)NCc3n[nH]c4ccccc34)c2)c1)c1ccccc1` [Example 16, 3-[5-({(1R,2S)-2-[(2,2-difluoropropanoyl)amino]-1-phenylpropyl}oxy)-1H-indazol-1-yl]-N-(1H-indazol-3-ylmethyl)benzamide], 42.4 nM.
In the case of `C[C@H](NC(=O)C(C)(F)F)[C@H](Oc1ccc2c(cnn2-c2cccc(C(=O)N[C@@H](C(N)=O)c3ccccc3)c2)c1)c1ccccc1` [Example 17, N-[(1R)-2-amino-2-oxo-1-phenylethyl]-3-[5-({(1R,2S)-2-[(2,2-difluoropropanoyl)amino]-1phenylpropyl}oxy)-1H-indazol-1-yl]benzamide] it was 3.55 nM.
Turning to `C[C@H](NC(=O)C(C)(F)F)[C@H](Oc1ccc2c(cnn2-c2cccc(C(=O)N(C)CC(N)=O)c2)c1)c1ccccc1` [Example 18], the IC50 was determined as 4.22 nM. This IC50 and that of the compound before are within 1.5-fold of each other.
For the compound `C[C@H](NC(=O)C(C)(F)F)[C@H](Oc1ccc2c(cnn2-c2cccc(C(=O)NCCC(N)=O)c2)c1)c1ccccc1` [Example 19, N-(3-amino-3-oxopropyl)-3-[5-({(1R,2S)-2-[(2,2-difluoropropanoyl)amino]-1-phenylpropyl}oxy)-1H-indazol-1-yl]benzamide], the IC50 was 2.29 nM. This IC50 is about 1.8-fold lower than that of the compound before.
In turn, `C[C@H](NC(=O)C(C)(F)F)[C@H](Oc1ccc2c(cnn2-c2cccc(C(=O)N3C[C@H](O)C[C@H]3C(N)=O)c2)c1)c1ccccc1` [Example 20, (4R)-1-({3-[5-({(1R,2S)-2-[(2,2-difluoropropanoyl)amino]-1-phenylpropyl}oxy)-1H-indazol-1-yl]phenyl}carbonyl)-4-hydroxy-L-prolinamide] had an IC50 of 75.9 nM. This IC50 is about 33-fold higher than that of the compound before.
In the case of `C[C@H](NC(=O)C1(C#N)CC1)[C@H](Oc1ccc2c(cnn2-c2cccc(C(=O)N3CCC[C@@H]3C(N)=O)c2)c1)c1ccccc1` [Example 21, 1-{[3-(5-{[(1R,2S)-2-{-[1(1-cyanocyclopropyl)carbonyl]amino}-1-phenylpropyl]oxy}-1H-indazol-1-yl)phenyl]carbonyl}-D-prolinamide] it was 2.91 nM; in that of `COc1ccc([C@@H](Oc2ccc3c(cnn3-c3cccc(C(=O)NC4CCCC4)c3)c2)[C@H](C)NC(=O)C(C)(F)F)cn1` [Example 22, N-cyclopentyl-3-(5-{[(1R,2S)-2-[(2,2-difluoropropanoyl)amino]-1-(6-methoxypyridin-3-yl)propyl]oxy}-1H-indazol-1-yl)benzamide], 1.37 nM; in that of `COc1ccc([C@@H](Oc2ccc3c(cnn3-c3cccc(C(=O)Nc4cccnc4)c3)c2)[C@H](C)NC(=O)C(C)(F)F)cn1` [Example 23, 3-(5-{[(1R,2S)-2-[(2,2-difluoropropanoyl)amino]-1-(6-methoxypyridin-3-yl)propyl]oxy}-1H-indazol-1-yl)-N-(pyridin-3-yl)benzamide], 0.86 nM.
As for `COc1ccc([C@@H](Oc2ccc3c(cnn3-c3cccc(C(=O)NC4CCS(=O)(=O)C4)c3)c2)[C@H](C)NC(=O)C(C)(F)F)cn1` (stereo partly drawn) [Example 24, 3-(5-{[(1R,2S)-2-[(2,2-difluoropropanoyl)amino]-1-(6-methoxypyridin-3-yl)propyl]oxy}-1H-indazol-1-yl)-N-(1,1-dioxidotetrahydrothiophen-3-yl)benzamide], the IC50 came out at 4.46 nM.

Usually IC50 stands for the concentration at which inhibition is half-maximal. Lower therefore signals greater potency.
